Laboratory results taken from US12077503B2, “Substituted cyclic amides and their use as herbicides” (FMC CORPORATION, priority 2015, dated 2024).

Assays:
Assay in all cases: Test C preemergence
Format in all cases: in vivo
[1] = tested on: oilseed rape (Brassica napus); conditions: for Plant response rating, Oilseed Rape: scale 0 to 100, 0 no effect, 100 complete control
In short: (§1)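 After treatment with surfactant-containing formulations, either preemergence to seeds in loam-sand soil or postemergence to potted seedlings at 2–18 cm, plants were kept 13–15 d in a greenhouse. Observers then compared them with controls and assigned ratings, 0 signifying no effect and 100 complete control.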

[2] = tested on: waterhemp (common waterhemp, Amaranthus rudis); conditions: for Plant response rating, Waterhemp: scale 0 to 100, 0 no effect, 100 complete control
In short: as §1

[3] = tested on: johnsongrass (Sorghum halepense); conditions: for Plant response rating, Johnsongrass: scale 0 to 100, 0 no effect, 100 complete control
In short: as §1

[4] = tested on: Galium (catchweed bedstraw, Galium aparine); conditions: for Plant response rating, Galium: scale 0 to 100, 0 no effect, 100 complete control
In short: as §1

[5] = tested on: blackgrass (Alopecurus myosuroides); conditions: for Plant response rating, Blackgrass: scale 0 to 100, 0 no effect, 100 complete control
In short: as §1

[6] = tested on: barnyardgrass (Echinochloa crus-galli); conditions: for Plant response rating, Barnyardgrass: scale 0 to 100, 0 no effect, 100 complete control
In short: as §1

[7] = tested on: ryegrass, Italian (Italian ryegrass, Lolium multiflorum); conditions: for Plant response rating, Ryegrass, Italian: scale 0 to 100, 0 no effect, 100 complete control
In short: as §1

[8] = tested on: crabgrass, large (large crabgrass, Digitaria sanguinalis); conditions: for Plant response rating, Crabgrass, Large: scale 0 to 100, 0 no effect, 100 complete control
In short: as §1

[9] = tested on: ragweed (common ragweed, Ambrosia elatior); conditions: for Plant response rating, Ragweed: scale 0 to 100, 0 no effect, 100 complete control
In short: as §1

[10] = tested on: wheat (winter wheat, Triticum aestivum); conditions: for Plant response rating, Wheat: scale 0 to 100, 0 no effect, 100 complete control
In short: as §1

soybean (Glycine max) = conditions: for Plant response rating, Soybean: scale 0 to 100, 0 no effect, 100 complete control
In short: as §1

[11] = tested on: nutsedge, yellow (yellow nutsedge, Cyperus esculentus); conditions: for Plant response rating, Nutsedge, Yellow: scale 0 to 100, 0 no effect, 100 complete control
In short: as §1

[12] = tested on: morningglory (Ipomoea coccinea); conditions: for Plant response rating, Morningglory: scale 0 to 100, 0 no effect, 100 complete control
In short: as §1

[13] = tested on: velvetleaf (Abutilon theophrasti); conditions: for Plant response rating, Velvetleaf: scale 0 to 100, 0 no effect, 100 complete control
In short: as §1

corn (Zea mays) = conditions: for Plant response rating, Corn: scale 0 to 100, 0 no effect, 100 complete control
In short: as §1

[14] = tested on: foxtail, giant (giant foxtail, Setaria faberii); conditions: for Plant response rating, Foxtail, Giant: scale 0 to 100, 0 no effect, 100 complete control
In short: as §1

[15] = tested on: lambsquarters (Chenopodium album); conditions: for Plant response rating, Lambsquarters: scale 0 to 100, 0 no effect, 100 complete control
In short: as §1

[16] = 31 g ai/ha, 0 is no effect, 100 is complete control

In the case of O=C1NCC(c2cc(F)cc(C(F)(F)F)c2)C1C(=O)Nc1cccc(F)c1F (centres unmarked) [Compound 488], the “Plant response rating (scale of 0 to 100), Oilseed Rape” value [1, 16] is reported as 40, the “Plant response rating, Oilseed Rape” value ([1]; 62 g ai/ha) is reported as 45 and the “Plant response rating, Oilseed Rape” value ([1]; 125 g ai/ha) is reported as 85. The “Plant response rating, Oilseed Rape” value ([1]; 250 g ai/ha) was 90, the “Plant response rating (scale of 0 to 100), Waterhemp” value [2, 16] was 25 and the “Plant response rating, Waterhemp” value ([2]; 62 g ai/ha) was 40. For the same compound, the “Plant response rating, Waterhemp” value ([2]; 125 g ai/ha) was 75, the “Plant response rating, Waterhemp” value ([2]; 250 g ai/ha) was 80 and the “Plant response rating (scale of 0 to 100), Johnsongrass” value [3, 16] was 70. For the same compound, the “Plant response rating, Johnsongrass” value ([3]; 62 g ai/ha) was 80, the “Plant response rating, Johnsongrass” value ([3]; 125 g ai/ha) was 85 and the “Plant response rating, Johnsongrass” value ([3]; 250 g ai/ha) was 90. The “Plant response rating (scale of 0 to 100), Galium” value [4, 16] was 80, the “Plant response rating, Galium” value ([4]; 62 g ai/ha) was 85 and the “Plant response rating, Galium” value ([4]; 125 g ai/ha) was 85. For the same compound, the “Plant response rating, Galium” value ([4]; 250 g ai/ha) was 85, the “Plant response rating (scale of 0 to 100), Blackgrass” value [5, 16] was 0 and the “Plant response rating, Blackgrass” value ([5]; 62 g ai/ha) was 50. The “Plant response rating, Blackgrass” value ([5]; 125 g ai/ha) was 90, the “Plant response rating, Blackgrass” value ([5]; 250 g ai/ha) was 85 and the “Plant response rating (scale of 0 to 100), Barnyardgrass” value [6, 16] was 95. For the same compound, the “Plant response rating, Barnyardgrass” value ([6]; 62 g ai/ha) was 90, the “Plant response rating, Barnyardgrass” value ([6]; 125 g ai/ha) was 95 and the “Plant response rating, Barnyardgrass” value ([6]; 250 g ai/ha) was 95. For the same compound, the “Plant response rating (scale of 0 to 100), Ryegrass, Italian” value [7, 16] was 5, the “Plant response rating, Ryegrass, Italian” value ([7]; 62 g ai/ha) was 35 and the “Plant response rating, Ryegrass, Italian” value ([7]; 125 g ai/ha) was 70. For the same compound, the “Plant response rating, Ryegrass, Italian” value ([7]; 250 g ai/ha) was 65, the “Plant response rating (scale of 0 to 100), Crabgrass, Large” value [8, 16] was 90 and the “Plant response rating, Crabgrass, Large” value ([8]; 62 g ai/ha) was 95. For the same compound, the “Plant response rating, Crabgrass, Large” value ([8]; 125 g ai/ha) was 95, the “Plant response rating, Crabgrass, Large” value ([8]; 250 g ai/ha) was 100 and the “Plant response rating (scale of 0 to 100), Ragweed” value [9, 16] was 0. For the same compound, the “Plant response rating, Ragweed” value ([9]; 62 g ai/ha) was 25, the “Plant response rating, Ragweed” value ([9]; 125 g ai/ha) was 40 and the “Plant response rating, Ragweed” value ([9]; 250 g ai/ha) was 70. For the same compound, the “Plant response rating (scale of 0 to 100), Wheat” value [10, 16] was 35, the “Plant response rating, Wheat” value ([10]; 62 g ai/ha) was 35 and the “Plant response rating, Wheat” value ([10]; 125 g ai/ha) was 85. For the same compound, the “Plant response rating, Wheat” value ([10]; 250 g ai/ha) was 90, the “Plant response rating (scale of 0 to 100), Soybean” value (soybean (Glycine max); [16]) was 0 and the “Plant response rating, Soybean” value (soybean (Glycine max); 62 g ai/ha) was 0. The “Plant response rating, Soybean” value (soybean (Glycine max); 125 g ai/ha) was 0, the “Plant response rating, Soybean” value (soybean (Glycine max); 250 g ai/ha) was 10 and the “Plant response rating (scale of 0 to 100), Nutsedge, Yellow” value [11, 16] was 0. The “Plant response rating, Nutsedge, Yellow” value ([11]; 62 g ai/ha) was 0, the “Plant response rating, Nutsedge, Yellow” value ([11]; 125 g ai/ha) was 0 and the “Plant response rating, Nutsedge, Yellow” value ([11]; 250 g ai/ha) was 0. For the same compound, the “Plant response rating (scale of 0 to 100), Morningglory” value [12, 16] was 0, the “Plant response rating, Morningglory” value ([12]; 62 g ai/ha) was 25 and the “Plant response rating, Morningglory” value ([12]; 125 g ai/ha) was 55. The “Plant response rating, Morningglory” value ([12]; 250 g ai/ha) was 60, the “Plant response rating (scale of 0 to 100), Velvetleaf” value [13, 16] was 0 and the “Plant response rating, Velvetleaf” value ([13]; 62 g ai/ha) was 0. The “Plant response rating, Velvetleaf” value ([13]; 125 g ai/ha) was 10, the “Plant response rating, Velvetleaf” value ([13]; 250 g ai/ha) was 20 and the “Plant response rating (scale of 0 to 100), Corn” value (corn (Zea mays); [16]) was 25. For the same compound, the “Plant response rating, Corn” value (corn (Zea mays); 62 g ai/ha) was 60, the “Plant response rating, Corn” value (corn (Zea mays); 125 g ai/ha) was 70 and the “Plant response rating, Corn” value (corn (Zea mays); 250 g ai/ha) was 85. The “Plant response rating (scale of 0 to 100), Foxtail, Giant” value [14, 16] was 85, the “Plant response rating, Foxtail, Giant” value ([14]; 62 g ai/ha) was 90 and the “Plant response rating, Foxtail, Giant” value ([14]; 125 g ai/ha) was 90. For the same compound, the “Plant response rating, Foxtail, Giant” value ([14]; 250 g ai/ha) was 95, the “Plant response rating (scale of 0 to 100), Lambsquarters” value [15, 16] was 20 and the “Plant response rating, Lambsquarters” value ([15]; 62 g ai/ha) was 50. The “Plant response rating, Lambsquarters” value ([15]; 125 g ai/ha) was 60 and the “Plant response rating, Lambsquarters” value ([15]; 250 g ai/ha) was 60.
